The source of these data is patent publication US8178530B2, “Imidazolopyrazine compounds useful for the treatment of degenerative and inflammatory diseases” (Janssen Pharmaceutica NV, priority 2006, dated 2012).

Bounds are passed on as bounds.

The test system of assay [1] is TNFα release by human PBMCs. Put plainly: Cytokine release by LPS-stimulated human PBMCs (TNFα ELISA). The class given is cell-based. The note with it: PBMC, LPS 1 μg/mL, 24 hr. How it is done:
Human peripheral blood mononuclear cells (PBMCs) are isolated from “buffy coats” prepared from the blood of healthy volunteers, isolated essentially according to method of Bøyum (1984). In brief, buffy coat is diluted 1:1 with 1×PBS (Gibco) and 30 mL is carefully put on top of 20 mL Lymphoprep™ (Lucron Bioproducts) in 50 mL Falcon tubes. After centrifugation (35 min, 400 g, 18° C.) the mononuclear cells are collected from the white interphase and washed 3 times with 1×PBS by resuspending and centrifugation (10 min, 200 g). Isolated PBMCs are finally resuspended in RPMI 1640 (Cat. No. 21875, Gibco) that is supplemented with 10% heat-inactivated FBS (Hyclone).
For the assay PBMCs are seeded at 2.5E6 cells/mL in 160 μL in 96-well plates (Nunc). Serial dilution of the test compounds are made first in DMSO (Sigma) and then diluted 50-fold in M199 medium (Gibco) containing 1% heat-inactivated FBS. Compounds are further 1/10 diluted in the assay plates to obtain final DMSO concentration of 0.2%. Cells are preincubated with the compounds for 1 hr at 37° C., 5% CO2. Then, cells are stimulated with LPS (Escherichia coli serotype 026:B6, Cat. No. L2654, Sigma) that is added in a volume of 20 μL to a final concentration of 1 μg/mL and cells are further cultured for 24 hr. The plates are centrifuged and the supernatant is collected and stored at −80° C. until analysis of appropriate dilutions in ELISAs.
The following 384-well chemiluminescent ELISA protocol was developed to measure TNFα levels in the supernatant: White Lumitrac 600 384-well plates (Greiner) are coated with (40 μL/well) anti-TNFα capture antibody (Cat. No. 551220, BD Pharmingen) that is diluted to 1 μg/mL in 1×PBS (Gibco). After overnight incubation at 4° C., plates are washed with 1×PBS (80 g NaCl, 2 g KCl (Sigma), 11.5 g Na2HPO4.7H2O and 2 g KH2PO4 in 10 L milliQ; pH 7.4) and blocked with 100 μL/well buffer B (1×PBS containing 1% BSA (Sigma), 5% sucrose (Sigma) and 0.05% NaN3 (Sigma)). After 4 hr incubation at RT, blocking buffer is removed and plates are washed once with PBST (1×PBS with 0.05% Tween-20 (Sigma)). Then, 40 μL of sample is transferred to the ELISA plates and plates are incubated at 4° C. Next day, plates are washed 3 times (twice with PBST and once with PBS) and 35 μL/well biotinylated anti-TNFα antibody (Cat. No. 554511, BD Pharmingen) diluted first to a concentration of 250 ng/ml in buffer D (1×PBS with 1% BSA) is added. After 2 h of incubation at RT, plates are washed as described above and 35 μL/well of a 1/2000 dilution of streptavidin-HRP conjugate (Cat. No. SNN2004, Biosource) in buffer D is added. After 45 min, plates are washed as described above and incubated for 5 min with 50 μL/well BM Chemiluminescence ELISA Substrate POD (Roche). Readout is performed on the Luminoscan Ascent Luminometer (Labsystems) with an integration time of 100 msec delivering raw data (RLU: relative luminescence units). The following controls are included in the experiments, a maximal signal control, in which the cells are activated by LPS but only the 0.2% DMSO vehicle (and thus no compound) is added. This control indicates the maximal level of TNFα that can be achieved in the test. A minimal signal control is also included in these experiments. Here, cells are not triggered. This control returns the basal TNFα levels produced by the PBMCs. The percent inhibition (PIN) of the TNFα release, achieved by the compounds is then calculated based on the RLU data returned by the ELISA with following formula: 100−[((TNFα level compound X at concentration Y−minimal TNFα levels)/(maximal TNFα levels−minimal TNFα levels))×100]. Where compounds are tested at 8 concentrations (1/3 serial dilution), EC50-values can be calculated by curve fitting of the means of the PIN data achieved for a compound at each test concentration. […]

For assay [2], the system named is MMP1 expression by SFs. Put plainly: 'MMP assay': MMP1 expression by 'complex trigger' activated synovial fibroblasts (MMP1 ELISA). It counts as cell-based, human. Conditions: Homo sapiens, Fibroblast, RASFs, 48 hrs.
Assay [3] concerns the target T1, MAPKAPK5 (Homo sapiens, UniProt Q8IW41).
T1 construct: 1 mU MAPKAP-K5
T1 sequence (Q8IW41 1-473): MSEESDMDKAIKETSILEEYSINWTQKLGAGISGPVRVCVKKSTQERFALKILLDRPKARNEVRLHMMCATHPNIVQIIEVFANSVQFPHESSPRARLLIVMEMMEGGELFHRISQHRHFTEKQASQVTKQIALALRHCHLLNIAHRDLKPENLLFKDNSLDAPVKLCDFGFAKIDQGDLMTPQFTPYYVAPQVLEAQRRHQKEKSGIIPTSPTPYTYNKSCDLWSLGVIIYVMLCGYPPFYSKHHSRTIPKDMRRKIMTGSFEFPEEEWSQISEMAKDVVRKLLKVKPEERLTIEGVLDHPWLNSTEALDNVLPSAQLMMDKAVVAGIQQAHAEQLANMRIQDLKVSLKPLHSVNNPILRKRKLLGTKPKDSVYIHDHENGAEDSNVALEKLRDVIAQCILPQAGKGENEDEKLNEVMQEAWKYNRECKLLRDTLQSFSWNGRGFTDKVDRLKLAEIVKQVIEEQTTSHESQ
Put plainly: MAPKAP-K5 assay (FlashPlate, 33P-ATP). The class given is biochemical. The note with it: 0.6 μM ATP, 30 minutes at room temperature. The procedure: 3 μM MAPKAP-K5 peptide substrate

Regarding `c1cn2c(-c3cn[nH]c3)cnc(Nc3ccc(N4CCOCC4)cc3)c2n1` [Compound 1, (4-Morpholin-4-yl-phenyl)-[5-(1H-pyrazol-4-yl)-imidazo[1,2-a]pyrazin-8-yl]-amine], the EC50 in assay [1] and in assay [2] was over 1 µM in each case.
Regarding `NC(=O)c1ccc(-c2cnc(Nc3ccc(N4CCOCC4)cc3)c3nccn23)s1` [Compound 152], the EC50 in assay [1] and in assay [2] was 0.101 to 0.5 µM throughout.
Regarding `NC(=O)c1coc(-c2cnc(Nc3ccc(N4CCOCC4)cc3)c3nccn23)c1` [Compound 179, 5-[8-(4-Morpholin-4-yl-phenylamino)-imidazo[1,2-a]pyrazin-5-yl]-furan-3-carboxylic acid amide], the values for the EC50 in assay [1] and in assay [2] were over 1 µM and 0.101 to 0.5 µM, respectively.
Taken in the same sequence, the figures for `O=C1NCc2cc(-c3cnc(Nc4ccc(N5CCOCC5)cc4)c4nccn34)ccc21` [Compound 178, 5-[8-(4-Morpholin-4-yl-phenylamino)-imidazo[1,2-a]pyrazin-5-yl]-2,3-dihydro-isoindol-1-one] were 0.001 to 0.1 µM and 0.101 to 0.5 µM.
With `CN1CCN(c2ccc(Nc3ncc(-c4cc[nH]c(=O)c4)n4ccnc34)cc2)CC1` [Compound 102, 4-{8-[4-(4-Methylpiperazin-1-yl)-phenylamino]imidazo[1,2-a]pyrazin-5-yl}-1H-pyridin-2-one], the EC50 in assay [1] and in assay [2] was over 1 µM each time.
With `NC(=O)c1ccc(-c2cnc(Nc3ccc(N4CCOCC4)cc3)c3nccn23)cc1` [Compound 13], the EC50 in assay [1] was over 1 µM; in assay [2] it was 0.501 to 1 µM.
Taken in the same sequence, the figures for `NC(=O)c1cc(-c2cnc(Nc3ccc(N4CCOCC4)cc3)c3nccn23)cs1` [Compound 177, 4-[8-(4-Morpholin-4-yl-phenylamino)-imidazo[1,2-a]pyrazin-5-yl]-thiophene-2-carboxylic acid amide] were over 1 µM and 0.101 to 0.5 µM.
For `NC(=O)c1cc(-c2cnc(Nc3ccc(N4CCOCC4)cc3)c3nccn23)co1` [Compound 203], the EC50 in assay [1] was over 1 µM; in assay [2], 0.501 to 1 µM.
Taken in the same sequence, the figures for `O=c1cc(-c2cnc(Nc3ccc(N4CCOCC4)cc3)c3nccn23)cc[nH]1` [Compound 85, 4-[8-(4-Morpholin-4-yl-phenylamino)imidazo[1,2-a]pyrazin-5-yl]-1H-pyridin-2-one] were over 1 µM and 0.501 to 1 µM.
For the compound `O=C1NCc2cc(-c3cnc(Nc4cnc(N5CCOCC5)nc4)c4nccn34)ccc21` [Compound 215], in assay [3], the IC50 fell in the range of 0.101 to 0.5 µM. In addition, the EC50 in assay [2] is over 1 µM.
Taken in the same sequence, the figures for `NC(=O)c1ccc(Nc2ncc(-c3cn[nH]c3)n3ccnc23)nc1` [Compound 38] were over 1 µM and over 1 µM.
In turn, `Cn1nnc(-c2ccc(Nc3ncc(-c4ccc(C(N)=O)cc4)n4ccnc34)cc2)n1` [Compound 170] showed a half-inhibitory concentration (IC50) in assay [3] of over 1 µM. For the same compound, the EC50 in assay [2] fell in the range of 0.101 to 0.5 µM.
Taken in the same sequence, the figures for `NS(=O)(=O)c1ccc(-c2cnc(Nc3ccc(N4CCOCC4)cc3)c3nccn23)cc1` [Compound 29] were over 1 µM and over 1 µM.
The like results for `c1cn2c(-c3nn[nH]n3)cnc(Nc3ccc(N4CCOCC4)cc3)c2n1` [Compound 62] were, in that order, over 1 µM and over 1 µM.
The like results for `NC(=O)Cn1cc(-c2cnc(Nc3ccc(N4CCOCC4)cc3)c3nccn23)cn1` [Compound 24] were, in that order, over 1 µM and over 1 µM.
As for `CC(C)N1CCC(c2ccc(Nc3ncc(-c4ccc5c(c4)CNC5=O)n4ccnc34)cc2)CC1` [Compound 206, 5-{8-[4-(1-Isopropylpiperidin-4-yl)phenylamino]-imidazo[1,2-a]pyrazin-5-yl}-2,3-dihydroisoindol-1-one], the IC50 in assay [3] was 0.001 to 0.1 µM. Further, the EC50 in assay [2] is over 1 µM.
Taken in the same sequence, the figures for `O=C(NCCO)c1ccc(Nc2ncc(-c3cn[nH]c3)n3ccnc23)cc1` [Compound 61] were 0.501 to 1 µM and over 1 µM.
Taken in the same sequence, the figures for `CCN(CCO)c1ccc(Nc2ncc(-c3ccc(C(N)=O)cc3)n3ccnc23)cc1` [Compound 4] were over 1 µM and 0.101 to 0.5 µM.
In assay [3], `CCN(CC)CCNC(=O)c1cccc(Nc2ncc(-c3cn[nH]c3)n3ccnc23)c1` [Compound 50] showed an IC50 of over 1 µM. In assay [2], the EC50 is over 1 µM.
`CCN(CC)CCNC(=O)c1ccc(Nc2ncc(-c3cn[nH]c3)n3ccnc23)cn1` [Compound 103, 5-[5-(1H-Pyrazol-4-yl)-imidazo[1,2-a]pyrazin-8-ylamino]-pyridine-2-carboxylic acid (2-diethylamino-ethyl)-amide]: the IC50 in assay [3] fell in the range of 0.501 to 1 µM. In addition, the EC50 in assay [2] is over 1 µM.
Taken in the same sequence, the figures for `CCN(CC)CCNC(=O)c1ccc(Nc2ncc(-c3ccc(-c4nn[nH]n4)cc3)n3ccnc23)cc1` [Compound 60] were over 1 µM and over 1 µM.
The compound `N#Cc1[nH]ncc1-c1cnc(Nc2ccc(N3CCOCC3)cc2)c2nccn12` [Compound 212, 4-[8-(4-Morpholin-4-yl-phenylamino)-imidazo[1,2-a]pyrazin-5-yl]-2H-pyrazole-3-carbonitrile] registered an IC50 in assay [3] of 0.101 to 0.5 µM. For the same compound, the EC50 in assay [2] is 0.101 to 0.5 µM.
In assay [3], `CCN(CC)CCNC(=O)c1ccc(Nc2ncc(C#N)n3ccnc23)cc1` [Compound 101] came in with an IC50 of over 1 µM. Also, the EC50 in assay [2] was over 1 µM.
In assay [3], `CN1CCN(S(=O)(=O)c2ccc(Nc3ncc(-c4cn[nH]c4)n4ccnc34)cc2)CC1` [Compound 70] yielded an IC50 of over 1 µM. The EC50 in assay [2] is over 1 µM.
Take `CS(=O)(=O)c1ccc(Nc2ncc(-c3ccc(C(N)=O)cc3)n3ccnc23)cc1` [Compound 97, 4-[8-(4-Methanesulfonyl-phenylamino)-imidazo[1,2-a]pyrazin-5-yl]-benzamide]: the IC50 in assay [3] was over 1 µM. For the same compound, the EC50 in assay [2] was over 1 µM.
In assay [3], `CCN(CC)CCNC(=O)c1ccc(Nc2ncc(-c3c(C)n[nH]c3C)n3ccnc23)cc1` [Compound 81] gave an IC50 of over 1 µM. For the same compound, the EC50 in assay [2] is over 1 µM.
